{"source": "patent US9492365B2", "about": "“Use of caftaric acid and derivatives in food supplement for regulating skin pigmentation” (Nestec S.A., priority 2010, dated 2016)", "key": {"B16 murine melanocytes": {"system": "B16 murine melanocytes", "experiment": "Production of melanin by B16 murine melanocyte cell line", "type": "cell-based", "conditions": "B16 melanocytes treated for 72 hours, presence or absence of NDP-MSH; relative to control (FIG. 1); Kojic acid at 400 μg/mL", "experimental": "In order to evaluate the potential beneficial effect of ingredients towards skin de- or pro-pigmentation we used 2D culture of murine melanocytes (B16) and we performed 2 tests: 1—assessment of melanin production and 2—assessment of tyrosinase production. 1. The cell culture conditions. • B16 cells were cultured in DMEM 1 g/L glucose without phenol red supplemented with 10% foetal calf serum, in a humidified chamber at 37° C. and containing 5% CO2. 2. The production of melanin by B16 murine melanocyte cell line. • Cells were incubated with the selected ingredients or the test references (Kojic acid at 400 μg/mL) for 72 hours, in the presence or absence of NDP-MSH an analog of MSH. The total quantity of melanin (extracellular and intracellular) was evaluated by measurement of the optical density at 405 nm of each sample against melanin standards in presence or in absence of NDP-MSH."}, "HDF": {"system": "HDF", "experiment": "Highest non cytotoxic concentration on HDF", "type": "cell-based", "conditions": "HDF cells"}, "HPEK": {"system": "HPEK", "experiment": "Highest non cytotoxic concentration on HPEK", "type": "cell-based, human", "conditions": "HPEK cells"}, "tyrosinase": {"system": "tyrosinase", "experiment": "Production of tyrosinase by B16 murine melanocyte cell line (immunolabeling)", "type": "cell-based", "conditions": "B16 melanocytes, 48 hours, immunolabeling (FIG. 2)", "experimental": "In order to evaluate the potential beneficial effect of ingredients towards skin de- or pro-pigmentation we used 2D culture of murine melanocytes (B16) and we performed 2 tests: 1—assessment of melanin production and 2—assessment of tyrosinase production. 1. The cell culture conditions. • B16 cells were cultured in DMEM 1 g/L glucose without phenol red supplemented with 10% foetal calf serum, in a humidified chamber at 37° C. and containing 5% CO2. 3. The production of tyrosinase by B16 murine melanocyte cell line. • Cells were incubated with the selected ingredients or the test references (Kojic acid at 400 μg/mL) for 48 hours. The production of tyrosinase was evaluated by immunolabeling."}, "filaggrin": {"system": "filaggrin", "experiment": "Synthesis of filaggrin by human epidermal keratinocytes (immunolabeling)", "type": "cell-based", "conditions": "human primary epidermal keratinocytes, 144 hours", "experimental": "The potential beneficial effect of the Extracts of Example 1 towards skin barrier function and skin hydration was evaluated by using 2D culture of human primary epidermal keratinocytes and we assessed their synthesis of filaggrin. Human epidermal keratinocytes were cultured in control keratinocytes-SFM medium, in a humidified chamber at 37° C. and containing 5% CO2. Cells were incubated with the selected ingredients or the test references (CaCl2 at 1.5 mM) for 144 hours. The production of filaggrin by was evaluated by immunolabeling."}}}
{"compound": "O=c1cc(CO)occ1O", "note": "[Kojic acid, reference compound]", "values": [{"measurement": "Melanin production", "setting": "B16 murine melanocytes", "value": "decrease in melanin production"}]}
{"compound": "O=C(/C=C/c1ccc(O)c(O)c1)O[C@@H](C(=O)O)[C@@H](O)C(=O)O", "note": "[Caftaric acid]", "values": [{"measurement": "Highest non cytotoxic conc. on HDF", "setting": "HDF", "value": 1, "unit": "mM"}, {"measurement": "Melanin production", "setting": "B16 murine melanocytes", "value": "decreased the production of melanin in vitro, more efficiently than the tested chicory extract MS-70"}, {"measurement": "Highest non cytotoxic conc. on HPEK", "setting": "HPEK", "value": 1, "unit": "mM"}, {"measurement": "Production of tyrosinase", "setting": "tyrosinase", "value": "decreased by these ingredients but to a limited extent"}, {"measurement": "Filaggrin production", "setting": "filaggrin", "value": "increased filaggrin production"}]}
